System: T1, 5-enolpyruvylshikimate-3-phosphate synthase (EPSPS)
T1 construct: native enzyme in leaf extract, not purified to homogeneity; partial EPSPS2 cDNA (543-bp fragment) without Pro106 or Thr102 substitution
Test: EnzCheck phosphate release assay, leaf extract, log-logistic fit
Type: biochemical, Sorghum halepense
Conditions: range of estimates over seven populations without significant differences: 2.6 (GR6), 3.4 (GR1); the others only in the figure; glyphosate 0-1000 µM; 360 nm, 10 min; read-out: I50

O=C(O)CNCP(=O)(O)O [glyphosate]
IC50: 2600 to 3400 nM

From article PMC7154863, “The First Case of Glyphosate Resistance in Johnsongrass (Sorghum halepense (L.) Pers.) in Europe” (Plants, 2020)
